Measured values taken from US9604945B2, “Sydnonimines-specific dopamine reuptake inhibitors and their use in treating dopamine related disorders” (priority 2007, dated 2017).

Tests used:
[1] = molecular target: Norepinephrine Transporter (Human Recombinant) (Homo sapiens (Human), UniProt P23975); assay: Norepinephrine transporter (human recombinant) binding assay, [3H]-Nisoxetine; settings: read-out: INH at 10 μM NET
Protocol: II: Norepinephrine Transporter (Human Recombinant) Binding Assay • This assay was carried out in accordance with the procedure described by Raisman, R, et al. Eur. Jrnl. Pharmacol. 78: 345-351 (1982) with modifications. See also, Langer, S., et al., Eur. Jrnl. Pharmacol, 72: 423-4 (1981). Tissue Preparation • 1. hrNET (Receptor Biology; RBNET) is diluted in assay buffer to 2.5 microunits/ml, so that each tube receives 0.5 microunits, or 2 microunits/ml. • NOTE: 100 microassays, add 20 mis of buffer. Binding Reaction • 1. Each tube receives the following components: • 25 ul drug or vehicle • 25 ul [^3H]-Nisoxetine • 200 ul tissue suspension. • 2. Initiate binding reaction with the addition of tissue, and incubate at room temperature for 1 hour. • 3. Terminate binding reaction by rapid filtration of tube contents onto 0.1% PEI treated GF/C filters (TopCount). • 4. Rinse the assay tubes once with ice cold 50 mM NaCl, then rapidly rinse the filters with 6×1 ml/tube of the same wash buffer. • 5. Radioactivity trapped onto the filters is assessed using liquid scintillation spectrophotometer after soaking the filters for at least 1 hour in scintillation cocktail. Materials and Reagents • 1. The receptor source is human recombinant/CHO. • 2. [^3H]-Nisoxetine, diluted to a concentration of 10 nM in assay buffer, is used as the radioligand. Thus, the final ligand concentration is 1 nM. • 3. Non specific binding is defined as that remaining in the presence of 1×10^−6M desipramine (MW=302.8) (Make fresh: in bag with dessicating rocks 1, dissolves in water 1E-3). • 4. The reference compound for the assay is desipramine. Desimpramine is run at following final concentrations: • 1×10^−10, 2×10^−10, 5×10^−10, 1×10^−9, 2×10^−9, 5×10^−9, 1×10^−8, 2×10^−8, 5×10^−8, 1×10^−7, 2×10^−7, 5×10^−7M • 5. The positive control is any of the above run at the final concentrations of: • 1×10^−9, 5×10^−9, 2×10^−8 M. • 6. The Kd for the receptor is 3 nM. Buffers

[2] = system: mice; assay: Open Field testing; assay type: in vivo, mouse; settings: for Anxiolytic effects in Open Field testing: FIGS. 9A-9D
Protocol: Open Field testing was also performed. In carrying out this testing, individually housed male and female mice aged 8-12 weeks were used. The mice were maintained on a reverse L:D/12 p.m.: 12 a.m. cycle in a barrier facility. Food and water were available ad libitum. Testing occurred towards the end of the light cycle between 6-12 a.m. Mice were acclimated to the testing room for at least 30 minutes. The assay was performed in a custom-made Open Field Apparatus. Each chamber was a 50 by 50 cm square. The experiment was recorded and tracked by a tracking system obtained from Viewpoint.
The time and the path length in the center of the open field were determined. The center of the open field is defined as a 13.5×13.5 cm square in the geometric center of the arena. The percent of path in the center is calculated as
[formula] For each mouse, the total path length and path length for 60 minutes at 5 minute intervals was determined as a measure of locomotor activity. In addition, feces produced by each experimental animal during the test was counted. Each chamber was cleaned between individual mouse testing.
Path length for 60 minutes at 5 minute intervals was analyzed by repeat measures using SPSS software. All other parameters were compared using unpaired t-test (GraphPad Prism).

[3] = molecular target: dopamine transporter (DAT) (Cavia porcellus, UniProt H0WCX4); assay: Dopamine transporter binding assay [3H]WIN 35,428; design: species or system Guinea Pig; settings: for inhibition at 10 µM: read-out: INH at 10 μM DAT
Chain of dopamine transporter (DAT) (H0WCX4 1-619): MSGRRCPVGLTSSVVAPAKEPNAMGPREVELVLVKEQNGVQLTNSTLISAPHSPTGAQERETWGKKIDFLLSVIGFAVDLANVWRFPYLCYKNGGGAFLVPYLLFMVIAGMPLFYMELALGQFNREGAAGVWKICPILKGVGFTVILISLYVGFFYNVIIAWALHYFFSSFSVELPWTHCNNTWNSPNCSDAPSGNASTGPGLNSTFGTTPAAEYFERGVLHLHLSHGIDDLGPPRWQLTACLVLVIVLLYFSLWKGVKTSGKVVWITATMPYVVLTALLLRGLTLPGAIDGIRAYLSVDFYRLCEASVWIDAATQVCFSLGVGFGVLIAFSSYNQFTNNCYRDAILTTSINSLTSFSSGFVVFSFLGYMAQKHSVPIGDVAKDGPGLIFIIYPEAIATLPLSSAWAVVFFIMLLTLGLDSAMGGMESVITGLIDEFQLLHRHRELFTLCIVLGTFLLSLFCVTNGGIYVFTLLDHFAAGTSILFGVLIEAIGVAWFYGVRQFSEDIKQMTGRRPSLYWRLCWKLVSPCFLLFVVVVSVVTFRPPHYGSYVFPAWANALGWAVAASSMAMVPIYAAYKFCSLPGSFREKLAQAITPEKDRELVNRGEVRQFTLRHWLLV
Protocol: DAT inhibition activity was tested according to the procedure described by J. Javitz et al., Mol. Pharmacol., 26: 35-44 (1984). The test results for a number of representative compounds of the invention are reported hereinbelow.
I. Dopamine Transporter Binding Assay [3H]WIN 35,428
• This assay was carried out according to the procedure described by Javitch, J. J. et al., Mol. Pharmacol. 26: 35-44; 1984
A. Tissue Preparation (Prepare all Solutions on Ice) • 1. Thaw frozen brains from male Guinea Pigs (in assay buffer) and place in 50 mM TRIS-HCl (pH 7.4 at 25° C. with 120 mM NaCl). Isolate striatum. • 2. Use a Polytron to homogenize tissue in 20 vols. (w/v) of 50 mM Tris-HCl (pH 7.4 at 25° C. with 120 mM NaCl). • 3. Centrifuge homogenate at 48,400×g for approximately 10 minutes at 4° C. Discard supernatant. • 4. Wash pellet an additional time as described in steps 2 and 3. • 5. Store pellet on ice until needed for binding assay. • 6. Using a Polytron (setting 5; approximately 10 seconds) resuspend pellet in 50 mM Tris-HCl (pH 7.4 at 25° C. with 120 mM NaCl) to an initial concentration of 10 mg/ml (original wet weight), such that the final concentration is 8 mg/ml or 4.0 mg tissue/tube.
B. Binding Reaction • 1. Each tube receives the following components: • 50 ul drug or vehicle • 50 ul [3H]-WIN 35,428 • 400 ul tissue suspension. • 2. Initiate binding reaction with the addition of tissue, and incubate for 120 minutes at 0° C. (on ice). • 3. Terminate binding reaction by rapid filtration of tube contents onto untreated Whatman GF/C filters. • 4. Rinse the assay tubes once with ice cold 50 mM TRIS HCl (pH 7.4 at 25° C. with 120 mM NaCl, BSA), then rapidly rinse the filters with 6×1 mls/tube of the same wash buffer. • 5. Radioactivity trapped onto the filters is assessed using LSM machine. Let sit for 3 hours in scint cocktail.
C. Dopamine Tranasporter Binding Assay
Materials and Reagents • 1. [3H]-WIN 35-428 is diluted to a concentration of 60 nM in 50 mM TRIS HCl (pH 7.4 at 25° C. with 120 mM NaCl). Thus, the final ligand concentration is 6 nM. • 2. Non-specific binding is defined as that remaining in the presence of 1×10^-6 M GBR12909 (room temperature cabinet). GBR12909 MW=523.5 g/mol. Will solubilize in 4% DMSO (sonicate 15 minutes). Aliquots can be used (1E-3). • 3. The reference compound for the assay is GBR12909 and is diluted in 4% DMSO and is then run at the following final concentrations: 1×10^−10, 5×10^−10, 2×10^−9, 5×10^−9, 1×10^−8, 2×10^−8, 5×10^−8, 1×10^−7, 2×10^−7, 5×10^−7, 1×10^−6, 5×10^−6. • 4. The positive control GBR12909 and is run at the final concentrations of: 2×10-8, 1×10^−7, 5×10^−7M. • 5. The Kd for the receptor is 28.0 nM. Buffers

Row | SMILES | inhibition at 10 µM [1] [%] | Locomotor activity in open field testing ([2]; 10 and 90 mg/kg, FIG. 8) | Anxiolytic effects in Open Field testing ([2]; 10 and 90 mg/kg) | Number of fecal boli in open field testing ([2]; mouse, in vivo) | Ki [3] [nM] | inhibition at 10 µM [3] [%]
1 | Cc1ccc(C[n+]2[cH-]/c(=N\C(=O)Nc3ccccc3)on2)cc1 [Example 3, N-phenylcarbamoyl-3-(p-methyl-benzyl)-sydnonimine] | 14 | effective to reduce locomotor activity | demonstrable anxiolytic effects | no effect | 0.19 | 94
2 | O=C(/N=c1\[cH-][n+](CCCc2ccccc2)no1)Nc1ccccc1 [Example 6, N-phenylcarbamoyl-3-(phenylpropyl)-sydnonimine] | 1.44 | – | induces anxiolytic effects | – | 25 | 96
